Reference: ChEMBL document CHEMBL4376882, “Photodynamic Therapy for ras-Driven Cancers: Targeting G-Quadruplex RNA Structures with Bifunctional Alkyl-Modified Porphyrins” (J Med Chem, 2020)

Experiments:
[1] = biological target: Quadruplex DNA; test: Binding affinity to NRAS RNA g-quadruplex (unknown origin) by fluorescence spectroscopy; type: nucleic-acid assay
[2] = biological target: Quadruplex DNA; test: Binding affinity to human KRAS utr-1 RNA g-quadruplex by fluorescence spectroscopy; type: nucleic-acid assay
[3] = Drug uptake in human PANC1 cells at 5 uM after 16 hrs by FACS analysis; type: ADME, cell-based; conditions: panc-1, 16 h
[4] = system: PANC-1; test: Cytotoxicity against human PANC1 cells assessed as reduction in metabolic activity after 48 hrs in dark followed by photoirradiation in presence of NADH by resazurin assay; type: functional, cell-based; conditions: PANC-1, light or radiation study
[5] = Toxicity in SCID mouse xenografted with human PANC1 cells assessed as tissue damage around the irradiated tumor at 3 mg/kg administered intratumorally after 2 hrs photoirradiated by diode laser at 193 J/cm2; type: organism-based; conditions: in vivo, other
[6] = system: PANC-1; test: Induction of apoptosis in human PANC1 cells assessed as viable cells at 10 nM and photoirradiated at 7.2 J/cm2 measured after 6 to 24 hrs by annexin-V-propidium iodide staining based FACScalibur flow cytometry analysis (reference value: 91.9 %); type: functional; conditions: PANC-1, light or radiation study, read-out: Activity
[7] = system: PANC-1; test: Induction of apoptosis in human PANC1 cells assessed as early apoptotic cells at 15 nM and photoirradiated at 7.2 J/cm2 measured after 6 to 24 hrs in presence of NAC by annexin-V-propidium iodide staining based FACScalibur flow cytometry analysis (reference value: 3.1 %); type: functional
[8] = system: PANC-1; test: Induction of apoptosis in human PANC1 cells assessed as necrotic cells at 15 nM and photoirradiated at 7.2 J/cm2 measured after 6 to 24 hrs in presence of NAC by annexin-V-propidium iodide staining based FACScalibur flow cytometry analysis (reference value: 1 %); type: functional

CCCCCCCCCCCCCC[n+]1ccc(-c2c3nc(c(-c4cc[n+](C)cc4)c4ccc([nH]4)c(-c4cc[n+](C)cc4)c4nc(c(-c5cc[n+](C)cc5)c5ccc2[nH]5)C=C4)C=C3)cc1.[I-].[I-].[I-].[I-]
Kd [1]: 107 nM
Kd [2]: 236 nM
Drug uptake [3]: Active
EC50 [4]: 13.7 nM
Activity [5]: Non-Toxic
viability at 0.01 µM [6]: 82.1%
Activity [7]: 3.9%
Activity [8]: 1.7%
